The text below walks through data of patent US8278464B2, “Insecticides” (Syngenta Crop Protection LLC, priority 2006, dated 2012).

SMILES strings stand for the structures.

Common to all, as to type: in vivo
Test [1] relates to Plutella xylostella (Diamond Back Moth). In words: Activity against Plutella xylostella, artificial diet MTP (Example B3). The settings on record: 120 h, L2 larvae, incubation 5 days. The procedure: (§1) 24-well microtiter plate (MTP) with artificial diet is treated with test solutions by pipetting. After drying, the MTP's are infested with larvae (L2) (10-15 per well). After an incubation period of 5 days, samples are checked for larval mortality, antifeedant and growth regulation. In this test, compounds listed in the Tables above show good activity. In particular compounds T13.1.2, T15.1.1, T15.1.91, T13.1.1, T9.1.2 (diastereomer A), T9.1.2 (diastereomer B), T16.1.1, T17.1.2 (diastereomer A), T17.1.2 (diastereomer B), T16.1.91, T13.1.92, T13.1.361, T13.1.391, T13.1.91, T13.1.6, T13.1.96, T44.1.2, T13.1.8, T13.1.23, T13.1.93, T13.1.113, T13.1.21, T13.1.111 have an activity of over 80% at 400 ppm.

Test [2] relates to Spodoptera littoralis (Cotton Leafworm). Description: Systemic insecticide test for Spodoptera littoralis, maize seedlings, 12.5 ppm (Example B9). The conditions noted are these: 96 h, 12.5 ppm in water, systemic via maize seedlings, larvae incubated four days. The procedure: (§2) Four day old maize seedlings (Zea mais, variety Stoneville) are placed individual in vials containing 24 ml water into which the chemical is diluted at 12.5 ppm. Seedlings are allowed to grow for six days. Subsequently leaves are cut and placed in a Petri dish (5 cm diameter), inoculated with twelve to fifteen 1st instar S. littoralis larvae and incubated for four days in a growth chamber (25° C., 50% r.h., 18:6 L:D photo period). Number of alive insects are counted and percentage of dead calculated. Tests were conducted with one replicate.

The test system of test [3] is Myzus persicae (Green Peach Aphid). In words: Activity against Myzus persicae, systemic, pea seedlings (Example B6). The settings on record: 144 h, 6 days after introduction. From the text:
Roots of pea seedlings, infested with an aphid population of mixed ages, are placed directly in the test solutions. 6 days after introduction, samples are checked for mortality and special effects on the plant.

Test [4] concerns Spodoptera littoralis (Egyptian Cotton Leafworm). In words: Activity against Spodoptera littoralis, cotton leaf discs sprayed (Example B1). The settings on record: foliar, 72 h, L1 larvae, checked 3 days after treatment. From the text:
Cotton leaf discs are placed on agar in a 24-well microtiter plate and sprayed with test solutions. After drying, the leaf discs are infested with 5 L1 larvae. The samples are checked for mortality, repellent effect, feeding behaviour, and growth regulation 3 days after treatment (DAT).

Test [5] relates to Heliothis virescens (Tobacco Budworm). In words: Activity against Heliothis virescens, eggs on artificial diet (Example B2). The settings on record: 96 h, eggs 0-24 h old, incubation 4 days. The procedure: Eggs (0-24 h old) are placed in 24-well microtiter plate on artificial diet and treated with test solutions by pipetting. After an incubation period of 4 days, samples are checked for egg mortality, larval mortality, and growth regulation.

Test [6] concerns Diabrotica balteata (Corn Root Worm). In words: Activity against Diabrotica balteata, artificial diet MTP (Example B4). The conditions noted are these: 120 h, L2 larvae, incubation 5 days. As for the experimental part:
as §1, with “(6-10” for “(10-15”, “B),” for “B), T16.1.1,”, “T13.1.92,” for “T13.1.92, T13.1.361, T13.1.391,”, “T13.1.23,” for “T13.1.23, T13.1.93,”

Test [7] concerns Thrips tabaci (Onion Thrips). Description: Activity against Thrips tabaci, sunflower leaf discs (Example B7). The settings on record: foliar, 144 h, incubation 6 days. The procedure: Sunflower leaf discs are placed on agar in a 24-well microtiter plate and sprayed with test solutions. After drying, the leaf discs are infested with a thrips population of mixed ages. After an incubation period of 6 days, samples are checked for mortality and special effects (e.g. phytotoxicity).

The test system of test [8] is Myzus persicae (Green Peach Aphid). Description: Activity against Myzus persicae, contact, sunflower leaf discs (Example B5). The conditions noted are these: foliar, 144 h, 6 DAT. As for the experimental part:
Sunflower leaf discs are placed on agar in a 24-well microtiter plate and sprayed with test solutions. After drying, the leaf discs are infested with an aphid population of mixed ages. After an incubation period of 6 DAT, samples are checked for mortality and special effects (e.g. phytotoxicity).

Test [9] relates to Spodoptera littoralis (Lepidoptera:Noctuidae). In words: Systemic insecticide test for Spodoptera littoralis, comparison with state of the art (Example B11). The procedure: as §2, with “the prescribed concentrations (3 and 0.8 ppm).” for “12.5 ppm.”, “(3.5” for “(5”, “calculated. Effects on larvae growth were compared to the control and percentage of larvae growth reduction calculated.” for “calculated.”

On to `Cc1cc(Cl)cc(C(=O)NC2(C)C[S+]([O-])C2)c1NC(=O)c1cc(C(F)(F)F)nn1-c1ncccc1Cl` (single isomer, unassigned) [T9.1.2 (diastereomer A)], for which the pest or weed control at 400 ppm in test [1], in test [3], in [4], in test [5], in test [6] and in [7] was above 80% each time. This compound also registered a pest or weed control at 400 ppm in test [8] above 80%. Moreover, the pest or weed control at 12.5 ppm in test [2] is above 80%.
On to `Cc1cc(Cl)cc(C(=O)NC2(C)CS(=N)(=O)C2)c1NC(=O)c1cc(C(F)(F)F)nn1-c1ncccc1Cl` (single isomer, unassigned) [T17.1.2 (diastereomer A)], for which the pest or weed control at 400 ppm in [1], in test [3], in test [4], in [5], in test [6] and in test [7] was above 80% throughout. Further, the pest or weed control at 400 ppm in test [8] was above 80%. This compound displayed a pest or weed control at 12.5 ppm in test [2] above 80%.
Consider `O=C(NC1CCC1)c1cccc(Cl)c1NC(=O)c1cc(C(F)(F)F)nn1-c1ncccc1Cl` [Comp. 296, reference compound], for which, in [9] (concentration 0.8 ppm), the “Death rate (%) after 4 days” value amounted to 0% and the “Larvae growth reduction (% compared to control)” value worked out at 0%. Further, in [9] (concentration 3 ppm), the “Death rate (%) after 4 days” value is 0% and the “Larvae growth reduction (% compared to control)” value was found to be 0%.
Regarding `Cc1cc(Cl)cc(C(=O)NC2(C)CS(=O)(=O)C2)c1NC(=O)c1cc(C(F)(F)F)nn1-c1ncccc1Cl` [T13.1.2, 2-(3-Chloro-pyridin-2-yl)-5-trifluoromethyl-2H-pyrazole-3-carboxylic acid [4-chloro-2-methyl-6-(3-methyl-1,1-dioxo-1λ^6-thietan-3-ylcarbamoyl)-phenyl]-amide], the pest or weed control at 400 ppm in [1], in test [3], in [4], in test [5], in test [6] and in [7] was above 80% throughout. The compound further came in with a pest or weed control at 400 ppm in test [8] above 80%. In addition, in test [2], the pest or weed control at 12.5 ppm is above 80%.
Regarding `Cc1cc(Cl)cc(C(=O)NC2CS(=O)(=O)C2)c1NC(=O)c1cc(OCC(F)(F)F)nn1-c1ncccc1Cl` [T13.1.21], the pest or weed control at 400 ppm in test [1], in test [3], in test [4], in test [5], in [6] and in [7] was above 80% throughout. In test [8], this compound yielded a pest or weed control at 400 ppm above 80%.
`Cc1cc(C#N)cc(C(=O)NC2CS(=O)(=O)C2)c1NC(=O)c1cc(C(F)(F)F)nn1-c1ncccc1Cl` [T13.1.91]: the pest or weed control at 400 ppm in test [1], in test [4], in test [5], in test [6], in test [7] and in [8] was above 80% throughout. This compound came in with a pest or weed control at 12.5 ppm in [2] above 80%.
For `Cc1cc(C#N)cc(C(=O)NC2(C)CS(=O)(=O)C2)c1NC(=O)c1cc(C(F)(F)F)nn1-c1ncccc1Cl` [T13.1.92], the pest or weed control at 400 ppm in [1], in [3], in test [4], in [5], in test [6] and in test [7] was above 80% throughout. Also, the pest or weed control at 400 ppm in test [8] is above 80%. The compound further showed a pest or weed control at 12.5 ppm in [2] above 80%.
With `Cc1cc(C#N)cc(C(=O)NC2CS(=O)(=O)C2)c1NC(=O)c1cc(Br)nn1-c1ncccc1Cl` [T13.1.96], the pest or weed control at 400 ppm in [1], in test [3], in test [4], in test [5], in [6] and in [7] was above 80% in each case. The compound further registered a pest or weed control at 400 ppm in [8] above 80%. The pest or weed control at 12.5 ppm in test [2] is above 80%.
On to `O=C(NC1CS(=O)(=O)C1)c1cccc(Cl)c1NC(=O)c1cc(C(F)(F)F)nn1-c1ncccc1Cl` [T13.1.391], for which the pest or weed control at 400 ppm in [1], in [4] and in test [5] was above 80% throughout. Also, the pest or weed control at 12.5 ppm in [2] is above 80%. Further, the “Death rate (%) after 4 days” value in test [9] (concentration 0.8 ppm) is on record as 10%; in test [9] (concentration 3 ppm), 55%. The “Larvae growth reduction (% compared to control)” value in [9] (concentration 0.8 ppm) was found to be 0%; in test [9] (concentration 3 ppm) it was 100%.
In the case of `Cc1cc(C#N)cc(C(=O)NC2CS(=O)(=O)C2(C)C)c1NC(=O)c1cc(C(F)(F)F)nn1-c1ncccc1Cl` (stereo not drawn) [T15.1.91], the pest or weed control at 400 ppm in test [1], in test [4], in test [5], in [6], in [7] and in test [8] was above 80% each time.
